From the NIST ThermoML archive (doi:10.1021/je7003929)

Test: xn = mol fraction of the nth substance listed
Conditions: Liquid, Vibrating tube method

c1ccc2sccc2c1 [benzo[b]thiophene] + CCCCCC
Conditions | mass density [kg/m3]
312.99 K, 1009 kPa, x2 = 0.2588 | 1009
312.99 K, 2023 kPa, x2 = 0.2588 | 1009.7
312.99 K, 3016 kPa, x2 = 0.2588 | 1010.5
312.99 K, 4029 kPa, x2 = 0.2588 | 1011.2
312.99 K, 5004 kPa, x2 = 0.2588 | 1011.9
312.99 K, 6021 kPa, x2 = 0.2588 | 1012.6
312.99 K, 7031 kPa, x2 = 0.2588 | 1013.3
312.99 K, 8005 kPa, x2 = 0.2588 | 1014
312.99 K, 9022 kPa, x2 = 0.2588 | 1014.8
312.99 K, 10016 kPa, x2 = 0.2588 | 1015.4
312.99 K, 11004 kPa, x2 = 0.2588 | 1016.1
312.99 K, 12015 kPa, x2 = 0.2588 | 1016.8
312.99 K, 13015 kPa, x2 = 0.2588 | 1017.5
312.99 K, 14003 kPa, x2 = 0.2588 | 1018.2
312.99 K, 15011 kPa, x2 = 0.2588 | 1018.9
312.99 K, 16003 kPa, x2 = 0.2588 | 1019.5
312.99 K, 17010 kPa, x2 = 0.2588 | 1020.2
312.99 K, 18002 kPa, x2 = 0.2588 | 1020.9
312.99 K, 19029 kPa, x2 = 0.2588 | 1021.5
312.99 K, 20017 kPa, x2 = 0.2588 | 1022.2
313 K, 1011 kPa, x2 = 0.0629 | 1112.7
313 K, 2027 kPa, x2 = 0.0629 | 1113.3
313 K, 3046 kPa, x2 = 0.0629 | 1113.9
313 K, 4018 kPa, x2 = 0.0629 | 1114.5
313 K, 5014 kPa, x2 = 0.0629 | 1115.2
313 K, 6016 kPa, x2 = 0.0629 | 1115.7
313 K, 7014 kPa, x2 = 0.0629 | 1116.3
313 K, 8008 kPa, x2 = 0.0629 | 1116.9
313 K, 9013 kPa, x2 = 0.0629 | 1117.6
313 K, 10003 kPa, x2 = 0.0629 | 1118.1
313 K, 11005 kPa, x2 = 0.0629 | 1118.7
313 K, 12017 kPa, x2 = 0.0629 | 1119.3
313 K, 13017 kPa, x2 = 0.0629 | 1119.9
313 K, 14023 kPa, x2 = 0.0629 | 1120.5
313 K, 15024 kPa, x2 = 0.0629 | 1121
313 K, 16016 kPa, x2 = 0.0629 | 1121.6
313 K, 17014 kPa, x2 = 0.0629 | 1122.3
313 K, 18019 kPa, x2 = 0.0629 | 1122.8
313 K, 19014 kPa, x2 = 0.0629 | 1123.4
313 K, 20000 kPa, x2 = 0.0629 | 1124
313.11 K, 1023 kPa, x2 = 0.9432 | 669
313.11 K, 2023 kPa, x2 = 0.9432 | 670
313.11 K, 3037 kPa, x2 = 0.9432 | 671
313.11 K, 4019 kPa, x2 = 0.9432 | 672.2
313.11 K, 5025 kPa, x2 = 0.9432 | 673.3
313.11 K, 6058 kPa, x2 = 0.9432 | 674.4
313.11 K, 7008 kPa, x2 = 0.9432 | 675.5
313.11 K, 8047 kPa, x2 = 0.9432 | 676.6
313.11 K, 9025 kPa, x2 = 0.9432 | 677.6
313.11 K, 10040 kPa, x2 = 0.9432 | 678.6
313.11 K, 11000 kPa, x2 = 0.9432 | 679.6
313.11 K, 12016 kPa, x2 = 0.9432 | 680.7
313.11 K, 13019 kPa, x2 = 0.9432 | 681.6
313.11 K, 14016 kPa, x2 = 0.9432 | 682.6
313.11 K, 15029 kPa, x2 = 0.9432 | 683.6
313.11 K, 16024 kPa, x2 = 0.9432 | 684.5
313.11 K, 17011 kPa, x2 = 0.9432 | 685.5
313.11 K, 18015 kPa, x2 = 0.9432 | 686.4
313.11 K, 19046 kPa, x2 = 0.9432 | 687.4
313.11 K, 20016 kPa, x2 = 0.9432 | 688.2
313.13 K, 1017 kPa, x2 = 0.7491 | 761.8
313.13 K, 2027 kPa, x2 = 0.7491 | 762.9
313.13 K, 3031 kPa, x2 = 0.7491 | 764
313.13 K, 4039 kPa, x2 = 0.7491 | 764.9
313.13 K, 5021 kPa, x2 = 0.7491 | 765.9
313.13 K, 6027 kPa, x2 = 0.7491 | 766.9
313.13 K, 7021 kPa, x2 = 0.7491 | 767.9
313.13 K, 8054 kPa, x2 = 0.7491 | 768.9
313.13 K, 9007 kPa, x2 = 0.7491 | 769.8
313.13 K, 10018 kPa, x2 = 0.7491 | 770.7
